# Test results from the supplement of paper PMC5908809.
# What was measured:
# Assay in all cases: relative IC50 (inflection point of fitted viability curve, relative to fitted max inhibition); higher = less sensitive
# Conditions in all cases: 72 h
# KHYG-1 (IL-2 2.5 ng/mL) = system: KHYG-1 (IL-2 2.5 ng/mL)
# Procedure: (§1)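 Drug sensitivity and resistance testing: 5 concentrations over a 10,000-fold range, 72 h at 37 °C, viability by CellTiter-Glo normalised to DMSO and benzethonium chloride controls. IC50 is the inflection point of a logistic fit (min fixed at 0, max fitted), so it is relative to the fitted maximal inhibition. Kept only where fitted max inhibition is at least 50%.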
# NK-92 (IL-2 2.5 ng/mL) = system: NK-92 (IL-2 2.5 ng/mL)
# Procedure: as §1
# SNK-6 (IL-2 2.5 ng/mL) = system: SNK-6 (IL-2 2.5 ng/mL)
# Procedure: as §1
# [1] = system: normal primary NK cells, pool 3 (3 donors) (IL-2 2.5 ng/mL)
# Procedure: as §1
# YT (IL-2 2.5 ng/mL) = system: YT (IL-2 2.5 ng/mL)
# Procedure: as §1
# NK-YS (IL-2 2.5 ng/mL) = system: NK-YS (IL-2 2.5 ng/mL)
# Procedure: as §1
# KAI3 (IL-2 2.5 ng/mL) = system: KAI3 (IL-2 2.5 ng/mL)
# Procedure: as §1
# DERL-7 (IL-2 2.5 ng/mL) = system: DERL-7 (IL-2 2.5 ng/mL)
# Procedure: as §1
# [2] = system: normal primary NK cells, pool 1 (3 donors), resting (IL-2 0 ng/mL)
# Procedure: as §1
# [3] = system: normal primary NK cells, pool 1 (3 donors) (IL-2 2.5 ng/mL)
# Procedure: as §1
# [4] = system: normal primary NK cells, pool 2 (3 donors) (IL-2 2.5 ng/mL)
# Procedure: as §1
# IMC-1 (IL-2 20 ng/mL) = system: IMC-1 (IL-2 20 ng/mL)
# Procedure: as §1
# NKL (IL-2 2.5 ng/mL) = system: NKL (IL-2 2.5 ng/mL)
# Procedure: as §1
SMILES,relative IC50 (KHYG-1 (IL-2 2.5 ng/mL)),relative IC50 (NK-92 (IL-2 2.5 ng/mL)),relative IC50 (SNK-6 (IL-2 2.5 ng/mL)),relative IC50 [1],relative IC50 (YT (IL-2 2.5 ng/mL)),relative IC50 (NK-YS (IL-2 2.5 ng/mL)),relative IC50 (KAI3 (IL-2 2.5 ng/mL)),relative IC50 (DERL-7 (IL-2 2.5 ng/mL)),relative IC50 [2],relative IC50 [3],relative IC50 [4],relative IC50 (IMC-1 (IL-2 20 ng/mL)),relative IC50 (NKL (IL-2 2.5 ng/mL))
C[C@@H]1C=C2C(=O)O[C@@H]3CC[C@H](C1)[C@]23O [Galiellalactone],5240 nM,5040 nM,3970 nM,7360 nM,8550 nM,3660 nM,3340 nM,3110 nM,3720 nM,4800 nM,5560 nM,–,–
CC1=C(/C=C/C(C)=C/C=C/C(C)=C/C(=O)O)C(C)(C)CCC1 [Tretinoin],–,–,–,> 10000 nM,–,–,–,–,–,–,–,> 10000 nM,–
COc1cc([C@@H]2c3cc4c(cc3[C@@H](O[C@@H]3O[C@@H]5CO[C@@H](c6cccs6)O[C@H]5[C@H](O)[C@H]3O)[C@H]3COC(=O)[C@H]23)OCO4)cc(OC)c1O [Teniposide],27.8 nM,84.1 nM,32 nM,1250 nM,122 nM,13.3 nM,18.8 nM,15.5 nM,139 nM,534 nM,965 nM,20.3 nM,10 nM
COc1cc2c(NC3CCN(C(C)C)CC3)nc(C3CCCCC3)nc2cc1OCCCN1CCCC1 [UNC0638],2540 nM,1660 nM,1600 nM,3360 nM,3050 nM,2570 nM,528 nM,2120 nM,2290 nM,3450 nM,3070 nM,2780 nM,2290 nM
CCS(=O)(=O)N1CC(CC#N)(n2cc(-c3ncnc4[nH]ccc34)cn2)C1 [Baricitinib],26.2 nM,95.8 nM,73.3 nM,124 nM,163 nM,63.5 nM,18.4 nM,51.9 nM,–,46.9 nM,54.4 nM,451 nM,12 nM
CN(c1ncccc1CNc1nc(Nc2ccc3c(c2)CC(=O)N3)ncc1C(F)(F)F)S(C)(=O)=O,1090 nM,3040 nM,2870 nM,3740 nM,1530 nM,1310 nM,1930 nM,2000 nM,4770 nM,2320 nM,3440 nM,2960 nM,1540 nM
O=C(Nc1ccncc1)C(=O)c1cn(Cc2ccc(Cl)cc2)c2ccccc12 [Indibulin],103 nM,48.5 nM,2.97 nM,–,131 nM,77.7 nM,45 nM,922 nM,–,> 10000 nM,–,339 nM,85.6 nM
CN(C)c1cc2c(cc1Sc1nc3c(N)nccc3n1CCNCC(C)(C)C)OCO2 [CUDC-305],243 nM,204 nM,328 nM,308 nM,302 nM,158 nM,114 nM,164 nM,199 nM,232 nM,208 nM,301 nM,293 nM
Cc1cc(Nc2cc(CN3CCOCC3)c3nc(C)c(Cc4ccc(Cl)cc4F)n3n2)n[nH]1 [Gandotinib],107 nM,236 nM,230 nM,669 nM,448 nM,260 nM,89.6 nM,163 nM,–,362 nM,183 nM,1260 nM,75 nM
CCN(CC)C(=S)SSC(=S)N(CC)CC [Disulfiram],2300 nM,30100 nM,40300 nM,320 nM,25700 nM,987 nM,16200 nM,194 nM,309 nM,323 nM,224 nM,1590 nM,256 nM
